# Biological target: Ribosomal protein S6 kinase alpha-3 (Homo sapiens) (UniProt P51812)
row,SMILES,ΔTm
1,"COC(=O)[C@]1(O)C[C@@H]2O[C@@]1(C)n1c3ccccc3c3c4c(c5c6ccccc6n2c5c31)C(=O)NC4 (single isomer, unassigned)",5.1 °C

# Biological target: Calcium/calmodulin-dependent protein kinase type II subunit delta (Homo sapiens) (UniProt Q13557)
# Sequence (Q13557 whole entry): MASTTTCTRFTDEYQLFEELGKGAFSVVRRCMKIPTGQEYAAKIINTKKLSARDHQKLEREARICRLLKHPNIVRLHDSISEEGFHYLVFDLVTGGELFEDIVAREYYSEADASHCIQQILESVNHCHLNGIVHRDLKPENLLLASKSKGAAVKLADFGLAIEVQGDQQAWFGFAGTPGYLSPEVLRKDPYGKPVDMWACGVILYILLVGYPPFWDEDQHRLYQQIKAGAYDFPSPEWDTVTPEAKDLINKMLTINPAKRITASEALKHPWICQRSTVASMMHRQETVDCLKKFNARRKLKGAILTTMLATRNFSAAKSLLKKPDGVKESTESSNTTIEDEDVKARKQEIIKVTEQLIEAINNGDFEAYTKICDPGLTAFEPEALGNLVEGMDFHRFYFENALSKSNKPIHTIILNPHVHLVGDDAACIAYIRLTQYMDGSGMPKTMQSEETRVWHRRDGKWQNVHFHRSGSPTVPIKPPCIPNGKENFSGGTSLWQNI
row,SMILES,ΔTm
1,COc1cc2ncnc(Nc3cccc(O)c3)c2cc1OC,-0.6 °C
2,CN[C@@H]1CC2O[C@@](C)([C@@H]1OC)n1c3ccccc3c3c4c(c5c6ccccc6n2c5c31)C(=O)NC4,17.1 °C
3,"COC(=O)[C@]1(O)C[C@@H]2O[C@@]1(C)n1c3ccccc3c3c4c(c5c6ccccc6n2c5c31)C(=O)NC4 (single isomer, unassigned)",3.5 °C

# Biological target: T1, Serine/threonine-protein kinase VRK1 (Homo sapiens) (UniProt Q99986)
# T1 sequence (whole entry): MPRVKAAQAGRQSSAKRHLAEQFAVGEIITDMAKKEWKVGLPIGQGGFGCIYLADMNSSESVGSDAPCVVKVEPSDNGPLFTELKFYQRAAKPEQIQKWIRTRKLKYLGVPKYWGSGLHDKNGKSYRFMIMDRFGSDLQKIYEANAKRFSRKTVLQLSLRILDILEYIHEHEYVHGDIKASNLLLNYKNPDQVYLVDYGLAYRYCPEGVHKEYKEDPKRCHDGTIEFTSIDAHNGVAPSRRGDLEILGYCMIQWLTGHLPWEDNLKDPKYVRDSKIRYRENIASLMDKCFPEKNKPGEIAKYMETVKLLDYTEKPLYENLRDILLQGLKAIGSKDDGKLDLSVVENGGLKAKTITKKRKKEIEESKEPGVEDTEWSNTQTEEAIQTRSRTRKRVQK
row,SMILES,ΔTm
1,CN[C@@H]1CC2O[C@@](C)([C@@H]1OC)n1c3ccccc3c3c4c(c5c6ccccc6n2c5c31)C(=O)NC4,2.2 °C
2,"COC(=O)[C@]1(O)C[C@@H]2O[C@@]1(C)n1c3ccccc3c3c4c(c5c6ccccc6n2c5c31)C(=O)NC4 (single isomer, unassigned)",0.2 °C

# Biological target: Mitogen-activated protein kinase 11 (Homo sapiens, UniProt Q15759)
# Sequence (Q15759 whole entry): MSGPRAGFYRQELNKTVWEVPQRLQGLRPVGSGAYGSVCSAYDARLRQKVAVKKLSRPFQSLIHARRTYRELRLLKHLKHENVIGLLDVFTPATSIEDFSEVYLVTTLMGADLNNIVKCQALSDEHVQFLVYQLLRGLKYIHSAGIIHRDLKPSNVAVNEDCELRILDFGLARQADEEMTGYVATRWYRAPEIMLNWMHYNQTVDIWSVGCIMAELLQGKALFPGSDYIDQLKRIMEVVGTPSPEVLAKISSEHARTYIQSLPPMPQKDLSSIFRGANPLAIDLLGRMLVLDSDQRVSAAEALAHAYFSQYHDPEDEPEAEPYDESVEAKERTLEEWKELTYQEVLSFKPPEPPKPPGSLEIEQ
row,SMILES,ΔTm
1,COc1cc2ncnc(Nc3cccc(O)c3)c2cc1OC,0.8 °C
2,CN[C@@H]1CC2O[C@@](C)([C@@H]1OC)n1c3ccccc3c3c4c(c5c6ccccc6n2c5c31)C(=O)NC4,0.5 °C
3,"COC(=O)[C@]1(O)C[C@@H]2O[C@@]1(C)n1c3ccccc3c3c4c(c5c6ccccc6n2c5c31)C(=O)NC4 (single isomer, unassigned)",0.7 °C

# Biological target: T2, Myotonin-protein kinase (Homo sapiens) (UniProt Q09013)
# T2 sequence (whole entry): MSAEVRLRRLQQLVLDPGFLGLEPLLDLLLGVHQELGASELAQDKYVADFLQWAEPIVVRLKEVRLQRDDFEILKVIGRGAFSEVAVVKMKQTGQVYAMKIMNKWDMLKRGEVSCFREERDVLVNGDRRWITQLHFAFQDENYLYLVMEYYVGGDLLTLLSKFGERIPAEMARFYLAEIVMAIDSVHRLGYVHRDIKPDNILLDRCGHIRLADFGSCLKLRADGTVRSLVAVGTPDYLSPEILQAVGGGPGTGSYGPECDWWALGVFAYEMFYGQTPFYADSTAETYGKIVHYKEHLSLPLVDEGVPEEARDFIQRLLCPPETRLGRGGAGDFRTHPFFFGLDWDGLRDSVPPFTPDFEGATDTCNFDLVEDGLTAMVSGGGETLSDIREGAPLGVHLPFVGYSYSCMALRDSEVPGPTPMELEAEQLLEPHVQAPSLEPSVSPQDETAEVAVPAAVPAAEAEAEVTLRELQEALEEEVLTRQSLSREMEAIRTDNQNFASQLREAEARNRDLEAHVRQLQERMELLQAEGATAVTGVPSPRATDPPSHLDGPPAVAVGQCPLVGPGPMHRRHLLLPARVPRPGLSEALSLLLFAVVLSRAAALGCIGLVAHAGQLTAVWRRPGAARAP
row,SMILES,ΔTm
1,COc1cc2ncnc(Nc3cccc(O)c3)c2cc1OC,0.9 °C
2,CN[C@@H]1CC2O[C@@](C)([C@@H]1OC)n1c3ccccc3c3c4c(c5c6ccccc6n2c5c31)C(=O)NC4,14.1 °C
3,"COC(=O)[C@]1(O)C[C@@H]2O[C@@]1(C)n1c3ccccc3c3c4c(c5c6ccccc6n2c5c31)C(=O)NC4 (single isomer, unassigned)",3.9 °C

# Biological target: Serine/threonine-protein kinase pim-2 (Homo sapiens, UniProt Q9P1W9)
row,SMILES,ΔTm
1,COc1cc2ncnc(Nc3cccc(O)c3)c2cc1OC,0.6 °C
2,"COC(=O)[C@]1(O)C[C@@H]2O[C@@]1(C)n1c3ccccc3c3c4c(c5c6ccccc6n2c5c31)C(=O)NC4 (single isomer, unassigned)",3.8 °C

# Biological target: Serine/threonine-protein kinase pim-1 (Homo sapiens) (UniProt P11309)
row,SMILES,ΔTm
1,COc1cc2ncnc(Nc3cccc(O)c3)c2cc1OC,0 °C
2,"COC(=O)[C@]1(O)C[C@@H]2O[C@@]1(C)n1c3ccccc3c3c4c(c5c6ccccc6n2c5c31)C(=O)NC4 (single isomer, unassigned)",3.7 °C

# Biological target: Calcium/calmodulin-dependent protein kinase type II subunit gamma (Homo sapiens) (UniProt Q13555)
# Sequence (Q13555 whole entry): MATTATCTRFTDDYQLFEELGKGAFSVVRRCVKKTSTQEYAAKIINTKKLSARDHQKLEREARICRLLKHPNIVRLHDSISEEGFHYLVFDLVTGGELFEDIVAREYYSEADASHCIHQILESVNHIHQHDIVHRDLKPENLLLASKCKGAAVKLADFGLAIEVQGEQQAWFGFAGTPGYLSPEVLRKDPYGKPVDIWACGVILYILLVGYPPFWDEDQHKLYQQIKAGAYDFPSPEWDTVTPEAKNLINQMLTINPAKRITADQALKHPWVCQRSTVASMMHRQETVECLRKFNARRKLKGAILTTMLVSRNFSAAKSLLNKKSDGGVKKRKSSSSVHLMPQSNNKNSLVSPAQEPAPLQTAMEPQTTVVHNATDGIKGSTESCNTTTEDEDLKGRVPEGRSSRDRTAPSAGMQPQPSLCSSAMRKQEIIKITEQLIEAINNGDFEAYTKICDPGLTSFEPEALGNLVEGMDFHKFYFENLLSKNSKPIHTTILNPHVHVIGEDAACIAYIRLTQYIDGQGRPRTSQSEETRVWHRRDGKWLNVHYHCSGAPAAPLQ
row,SMILES,ΔTm
1,COc1cc2ncnc(Nc3cccc(O)c3)c2cc1OC,0.5 °C
2,CN[C@@H]1CC2O[C@@](C)([C@@H]1OC)n1c3ccccc3c3c4c(c5c6ccccc6n2c5c31)C(=O)NC4,14.6 °C
3,"COC(=O)[C@]1(O)C[C@@H]2O[C@@]1(C)n1c3ccccc3c3c4c(c5c6ccccc6n2c5c31)C(=O)NC4 (single isomer, unassigned)",6.5 °C

# Biological target: Serine/threonine-protein kinase PAK 5 (Homo sapiens) (UniProt Q9P286)
# Sequence (Q9P286 whole entry, looked up): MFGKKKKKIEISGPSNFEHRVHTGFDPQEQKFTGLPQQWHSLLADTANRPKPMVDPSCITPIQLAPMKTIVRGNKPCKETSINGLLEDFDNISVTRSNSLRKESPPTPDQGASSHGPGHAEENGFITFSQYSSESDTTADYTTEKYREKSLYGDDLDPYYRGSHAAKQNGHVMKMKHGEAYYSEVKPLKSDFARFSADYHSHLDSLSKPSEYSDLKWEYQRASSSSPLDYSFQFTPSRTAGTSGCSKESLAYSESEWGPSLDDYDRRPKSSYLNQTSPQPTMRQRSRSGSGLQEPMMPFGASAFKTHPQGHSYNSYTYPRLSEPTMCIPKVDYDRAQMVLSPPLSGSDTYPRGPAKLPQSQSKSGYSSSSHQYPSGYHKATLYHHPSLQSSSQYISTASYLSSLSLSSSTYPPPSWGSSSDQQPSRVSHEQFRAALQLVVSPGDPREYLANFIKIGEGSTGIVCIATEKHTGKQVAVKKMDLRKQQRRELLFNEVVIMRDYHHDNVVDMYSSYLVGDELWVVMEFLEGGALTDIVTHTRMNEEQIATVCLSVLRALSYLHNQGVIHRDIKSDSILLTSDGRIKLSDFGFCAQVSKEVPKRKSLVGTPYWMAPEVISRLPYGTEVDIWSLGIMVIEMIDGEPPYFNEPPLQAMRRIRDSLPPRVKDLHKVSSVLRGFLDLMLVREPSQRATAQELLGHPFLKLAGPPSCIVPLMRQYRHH
row,SMILES,ΔTm
1,COc1cc2ncnc(Nc3cccc(O)c3)c2cc1OC,0.5 °C
2,CN[C@@H]1CC2O[C@@](C)([C@@H]1OC)n1c3ccccc3c3c4c(c5c6ccccc6n2c5c31)C(=O)NC4,12.4 °C
3,"COC(=O)[C@]1(O)C[C@@H]2O[C@@]1(C)n1c3ccccc3c3c4c(c5c6ccccc6n2c5c31)C(=O)NC4 (single isomer, unassigned)",5.5 °C

# Biological target: T3, Lymphokine-activated killer T-cell-originated protein kinase (Homo sapiens) (UniProt Q96KB5)
# T3 sequence (whole entry): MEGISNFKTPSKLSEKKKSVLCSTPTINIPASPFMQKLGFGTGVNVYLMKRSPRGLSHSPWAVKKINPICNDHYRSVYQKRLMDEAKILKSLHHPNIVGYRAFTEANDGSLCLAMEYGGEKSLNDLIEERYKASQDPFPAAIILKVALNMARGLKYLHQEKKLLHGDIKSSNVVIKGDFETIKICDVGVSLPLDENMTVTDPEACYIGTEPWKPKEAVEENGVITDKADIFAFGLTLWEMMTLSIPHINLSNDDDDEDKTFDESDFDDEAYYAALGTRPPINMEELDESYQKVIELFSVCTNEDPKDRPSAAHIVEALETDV
row,SMILES,ΔTm
1,COc1cc2ncnc(Nc3cccc(O)c3)c2cc1OC,-0.1 °C
2,CN[C@@H]1CC2O[C@@](C)([C@@H]1OC)n1c3ccccc3c3c4c(c5c6ccccc6n2c5c31)C(=O)NC4,0.4 °C
3,"COC(=O)[C@]1(O)C[C@@H]2O[C@@]1(C)n1c3ccccc3c3c4c(c5c6ccccc6n2c5c31)C(=O)NC4 (single isomer, unassigned)",0.4 °C

# Biological target: Serine/threonine-protein kinase 25 (Homo sapiens) (UniProt O00506)
# Sequence (O00506 whole entry, looked up): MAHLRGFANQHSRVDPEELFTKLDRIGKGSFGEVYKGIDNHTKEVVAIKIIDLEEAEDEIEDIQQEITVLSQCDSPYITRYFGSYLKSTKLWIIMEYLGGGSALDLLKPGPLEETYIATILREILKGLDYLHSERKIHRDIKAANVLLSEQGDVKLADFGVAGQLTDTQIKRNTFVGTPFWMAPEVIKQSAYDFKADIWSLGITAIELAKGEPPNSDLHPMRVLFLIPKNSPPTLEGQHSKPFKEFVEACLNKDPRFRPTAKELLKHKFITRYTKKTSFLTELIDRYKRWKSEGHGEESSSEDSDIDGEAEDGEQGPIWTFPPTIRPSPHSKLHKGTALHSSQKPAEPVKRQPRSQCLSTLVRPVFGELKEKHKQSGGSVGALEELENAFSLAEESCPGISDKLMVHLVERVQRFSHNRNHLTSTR
row,SMILES,ΔTm
1,COc1cc2ncnc(Nc3cccc(O)c3)c2cc1OC,0.6 °C
2,CN[C@@H]1CC2O[C@@](C)([C@@H]1OC)n1c3ccccc3c3c4c(c5c6ccccc6n2c5c31)C(=O)NC4,9.6 °C
3,"COC(=O)[C@]1(O)C[C@@H]2O[C@@]1(C)n1c3ccccc3c3c4c(c5c6ccccc6n2c5c31)C(=O)NC4 (single isomer, unassigned)",4.4 °C

# Biological target: Dual specificity mitogen-activated protein kinase kinase 2 (Homo sapiens, UniProt P36507)
row,ΔTm,SMILES
1,0.1 °C,COc1cc2ncnc(Nc3cccc(O)c3)c2cc1OC

# Biological target: Serine/threonine-protein kinase OSR1 (Homo sapiens) (UniProt O95747)
# Sequence (O95747 2-527 limits assumed): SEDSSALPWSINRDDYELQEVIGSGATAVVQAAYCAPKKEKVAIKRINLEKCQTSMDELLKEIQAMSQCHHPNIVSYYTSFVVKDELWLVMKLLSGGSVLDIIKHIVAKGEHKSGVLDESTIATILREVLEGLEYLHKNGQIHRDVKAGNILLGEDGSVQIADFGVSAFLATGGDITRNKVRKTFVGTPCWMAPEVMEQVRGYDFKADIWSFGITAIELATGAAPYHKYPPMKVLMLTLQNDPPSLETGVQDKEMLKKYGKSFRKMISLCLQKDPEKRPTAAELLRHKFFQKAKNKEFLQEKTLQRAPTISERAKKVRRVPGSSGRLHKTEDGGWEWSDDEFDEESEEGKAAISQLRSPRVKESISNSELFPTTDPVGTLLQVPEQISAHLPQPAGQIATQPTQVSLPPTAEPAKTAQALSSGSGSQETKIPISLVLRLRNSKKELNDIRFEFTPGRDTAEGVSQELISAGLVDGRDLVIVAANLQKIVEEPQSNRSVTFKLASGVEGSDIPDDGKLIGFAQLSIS
row,SMILES,ΔTm
1,COc1cc2ncnc(Nc3cccc(O)c3)c2cc1OC,0.2 °C
2,CN[C@@H]1CC2O[C@@](C)([C@@H]1OC)n1c3ccccc3c3c4c(c5c6ccccc6n2c5c31)C(=O)NC4,6.9 °C
3,"COC(=O)[C@]1(O)C[C@@H]2O[C@@]1(C)n1c3ccccc3c3c4c(c5c6ccccc6n2c5c31)C(=O)NC4 (single isomer, unassigned)",1.8 °C

# Biological target: Death-associated protein kinase 3 (Homo sapiens) (UniProt O43293)
# Sequence (O43293 whole entry, looked up): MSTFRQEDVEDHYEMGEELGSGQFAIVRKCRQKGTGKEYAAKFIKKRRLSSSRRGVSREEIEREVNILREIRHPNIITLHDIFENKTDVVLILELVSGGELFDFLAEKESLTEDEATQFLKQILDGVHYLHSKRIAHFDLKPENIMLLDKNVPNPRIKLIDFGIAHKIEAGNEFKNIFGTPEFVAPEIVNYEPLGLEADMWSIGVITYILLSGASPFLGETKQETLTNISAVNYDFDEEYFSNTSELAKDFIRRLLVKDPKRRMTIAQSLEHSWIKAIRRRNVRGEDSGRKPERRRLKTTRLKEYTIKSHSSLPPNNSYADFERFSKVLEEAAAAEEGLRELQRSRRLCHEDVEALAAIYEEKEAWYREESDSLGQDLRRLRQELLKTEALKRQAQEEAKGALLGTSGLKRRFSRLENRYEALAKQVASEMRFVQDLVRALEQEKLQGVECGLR
row,SMILES,ΔTm
1,COc1cc2ncnc(Nc3cccc(O)c3)c2cc1OC,1.7 °C
2,CN[C@@H]1CC2O[C@@](C)([C@@H]1OC)n1c3ccccc3c3c4c(c5c6ccccc6n2c5c31)C(=O)NC4,13 °C
3,"COC(=O)[C@]1(O)C[C@@H]2O[C@@]1(C)n1c3ccccc3c3c4c(c5c6ccccc6n2c5c31)C(=O)NC4 (single isomer, unassigned)",4.6 °C

# Biological target: Serine/threonine-protein kinase 26 (Homo sapiens) (UniProt Q9P289)
# Sequence (Q9P289 2-416 limits assumed): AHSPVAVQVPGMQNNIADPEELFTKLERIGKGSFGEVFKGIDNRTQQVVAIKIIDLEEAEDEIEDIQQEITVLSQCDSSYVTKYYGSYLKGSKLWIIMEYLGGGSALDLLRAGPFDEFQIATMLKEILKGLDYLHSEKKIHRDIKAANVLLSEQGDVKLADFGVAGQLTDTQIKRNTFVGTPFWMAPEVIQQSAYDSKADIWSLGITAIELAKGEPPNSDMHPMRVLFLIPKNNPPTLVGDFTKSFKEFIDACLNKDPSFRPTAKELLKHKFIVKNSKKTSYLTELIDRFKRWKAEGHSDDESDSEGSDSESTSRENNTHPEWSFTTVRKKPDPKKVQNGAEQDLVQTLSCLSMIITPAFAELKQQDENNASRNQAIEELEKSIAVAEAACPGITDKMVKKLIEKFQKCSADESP
row,SMILES,ΔTm
1,COc1cc2ncnc(Nc3cccc(O)c3)c2cc1OC,0.1 °C
2,CN[C@@H]1CC2O[C@@](C)([C@@H]1OC)n1c3ccccc3c3c4c(c5c6ccccc6n2c5c31)C(=O)NC4,8.8 °C
3,"COC(=O)[C@]1(O)C[C@@H]2O[C@@]1(C)n1c3ccccc3c3c4c(c5c6ccccc6n2c5c31)C(=O)NC4 (single isomer, unassigned)",1.6 °C

# Biological target: Serine/threonine-protein kinase 26 (Homo sapiens) (UniProt Q9P289)
# Remark: another data set of the same source
row,SMILES,ΔTm
1,CN[C@@H]1CC2O[C@@](C)([C@@H]1OC)n1c3ccccc3c3c4c(c5c6ccccc6n2c5c31)C(=O)NC4,9.3 °C
2,"COC(=O)[C@]1(O)C[C@@H]2O[C@@]1(C)n1c3ccccc3c3c4c(c5c6ccccc6n2c5c31)C(=O)NC4 (single isomer, unassigned)",3 °C

# Biological target: Dual specificity protein kinase CLK2 (Homo sapiens) (UniProt P49760)
# Sequence (P49760 whole entry, looked up): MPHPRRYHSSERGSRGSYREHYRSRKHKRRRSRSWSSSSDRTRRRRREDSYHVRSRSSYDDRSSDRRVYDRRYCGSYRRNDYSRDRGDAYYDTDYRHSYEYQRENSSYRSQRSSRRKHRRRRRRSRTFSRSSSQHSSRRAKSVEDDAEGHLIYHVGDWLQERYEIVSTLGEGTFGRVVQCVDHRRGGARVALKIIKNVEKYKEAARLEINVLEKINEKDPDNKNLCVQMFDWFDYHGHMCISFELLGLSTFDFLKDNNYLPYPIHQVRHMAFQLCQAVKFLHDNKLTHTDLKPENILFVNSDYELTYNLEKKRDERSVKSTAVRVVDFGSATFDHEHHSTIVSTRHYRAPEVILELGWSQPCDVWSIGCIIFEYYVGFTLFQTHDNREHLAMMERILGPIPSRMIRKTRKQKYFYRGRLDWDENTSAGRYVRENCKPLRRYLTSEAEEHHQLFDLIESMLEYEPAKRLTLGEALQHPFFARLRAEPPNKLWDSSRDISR
row,SMILES,ΔTm
1,COc1cc2ncnc(Nc3cccc(O)c3)c2cc1OC,1.3 °C
2,CN[C@@H]1CC2O[C@@](C)([C@@H]1OC)n1c3ccccc3c3c4c(c5c6ccccc6n2c5c31)C(=O)NC4,6.9 °C
3,"COC(=O)[C@]1(O)C[C@@H]2O[C@@]1(C)n1c3ccccc3c3c4c(c5c6ccccc6n2c5c31)C(=O)NC4 (single isomer, unassigned)",4.8 °C

# Biological target: Serine/threonine-protein kinase pim-3 (Homo sapiens) (UniProt Q86V86)
row,SMILES,ΔTm
1,COc1cc2ncnc(Nc3cccc(O)c3)c2cc1OC,2 °C
2,CN[C@@H]1CC2O[C@@](C)([C@@H]1OC)n1c3ccccc3c3c4c(c5c6ccccc6n2c5c31)C(=O)NC4,17.7 °C
3,"COC(=O)[C@]1(O)C[C@@H]2O[C@@]1(C)n1c3ccccc3c3c4c(c5c6ccccc6n2c5c31)C(=O)NC4 (single isomer, unassigned)",5.8 °C

# Biological target: Calcium/calmodulin-dependent protein kinase type 1D (Homo sapiens) (UniProt Q8IU85)
row,SMILES,ΔTm
1,COc1cc2ncnc(Nc3cccc(O)c3)c2cc1OC,-0.1 °C
2,"COC(=O)[C@]1(O)C[C@@H]2O[C@@]1(C)n1c3ccccc3c3c4c(c5c6ccccc6n2c5c31)C(=O)NC4 (single isomer, unassigned)",4 °C

# Biological target: T4, Serine/threonine-protein kinase 17A (Homo sapiens) (UniProt Q9UEE5)
# T4 sequence (whole entry): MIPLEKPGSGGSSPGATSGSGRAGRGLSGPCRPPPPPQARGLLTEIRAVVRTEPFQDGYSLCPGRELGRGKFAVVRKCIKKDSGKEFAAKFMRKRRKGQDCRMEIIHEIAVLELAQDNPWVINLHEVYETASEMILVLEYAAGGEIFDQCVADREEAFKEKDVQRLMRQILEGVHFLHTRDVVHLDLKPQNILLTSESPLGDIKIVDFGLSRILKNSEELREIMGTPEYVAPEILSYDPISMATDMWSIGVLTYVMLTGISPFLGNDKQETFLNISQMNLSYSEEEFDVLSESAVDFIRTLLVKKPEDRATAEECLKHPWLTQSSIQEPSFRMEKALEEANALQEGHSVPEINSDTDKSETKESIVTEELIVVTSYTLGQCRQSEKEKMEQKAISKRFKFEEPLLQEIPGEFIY
row,SMILES,ΔTm
1,COc1cc2ncnc(Nc3cccc(O)c3)c2cc1OC,3.7 °C
2,CN[C@@H]1CC2O[C@@](C)([C@@H]1OC)n1c3ccccc3c3c4c(c5c6ccccc6n2c5c31)C(=O)NC4,17.4 °C
3,"COC(=O)[C@]1(O)C[C@@H]2O[C@@]1(C)n1c3ccccc3c3c4c(c5c6ccccc6n2c5c31)C(=O)NC4 (single isomer, unassigned)",17.5 °C
